Patent US8900444B2, “Switchable hydrophilicity solvents and methods of use thereof” (Queen's University at Kingston, priority 2009, dated 2014)

Experiments:
[1] = Water miscibility of amidines in neutral form and after CO2; assay type: physicochemical
Source text: This represents relatively hydrophilic character. The amidines A-D are unsatisfactory for use as a switchable hydrophilicity solvent because they are insufficiently hydrophobic in their amidine form. […] Since such amidines are not separable from water after switching from their hydrophilic to hydrophobic forms, they are unsuitable for use in the present invention.
Exposure of a 1:1 by volume mixture of two immiscible liquids, hydrophobic PA and water, to gaseous CO2, at 1 atmosphere, caused a conversion to a hydrophilic liquid comprising an aqueous solution of N,N,N′-tripropylbutyramidinium bicarbonate (PAB) (see FIG. 1 for the chemical scheme in which R^1-4 are propyl). NMR data for the PA/water system is presented in FIGS. 4 and 5 and IR data in FIG. 6. FIGS. 4A and 5A show ^1H and ^13C NMR data for PA. After switching, the detection of the N,N,N′-tripropylbutyramidinium bicarbonate salt was confirmed by ^1H and ^13C NMR as shown in FIGS. 4B and 5B.
Similarly, exposure of a 1:1 by volume mixture of two immiscible liquids, hydrophobic BA and water, to gaseous CO2, at 1 atmosphere, caused a conversion to a hydrophilic liquid comprising an aqueous solution of N,N,N′-tributylpentanamidinium bicarbonate (BAB) (see FIG. 1 for the chemical scheme in which R^1-4 are butyl). NMR data for the […] is presented in FIGS. 7 and 8 and IR data in FIG. 9. […] show ^1H and ^13C NMR data for BA. After switching, the detection of the N,N,N′-tributylpentanamidinium bicarbonate salt was confirmed by ^1H and ^13C NMR as shown in FIGS. 6B and 7B. The hydrophilic aqueous solution of BAB was converted back into hydrophobic BA and water by heating at 80° C.

[2] = Qualitative switchability assessment of BA (Example 1B); assay type: physicochemical
Source text: The BA amidine's ability to act as a switchable hydrophilicity solvent for the separation of a selected substance is dependent on its ability to switch from the hydrophobic form to a hydrophilic form. This is achieved by adding water to provide an aqueous layer and decreasing the pH of the aqueous layer, namely by dissolving CO2 in the aqueous layer. When carbon dioxide dissolves in water, it forms carbonic acid with pKa1 of 6.4. The resultant dissociation is sufficient to protonate a hydrophobic amidine, causing it to become charged forming a hydrophilic amidinium bicarbonate (BAB). In this preliminary switching study, the amidine's ability to act as a base and its ability to switch hydrophilicity were studied.
Switching behavior was studied for BA over various periods of time. A glass vial (4 mL) was prepared, containing distilled water (1.0 mL) and BA amidine (0.5 mL).
CO2 was bubbled through the vial for roughly 30 minutes, until the top layer had disappeared showing that a hydrophilic solution of BAB in water had been formed.
A magnetic stirrer was placed in the vial. The vial was suspended in an 80° C. oil bath and stirred. The vial was intermittently removed from the bath and monitored for the presence of a second layer after 20, 50 and 75 minutes. The formation of a second layer (hydrophobic BA) was noted after 20 minutes in the oil bath.

With `CCCCN=C(CCCC)N(CCCC)CCCC` [BA, N,N,N′-tributylpentanamidine] the “miscibility with water after CO2 trigger (amidinium bicarbonate form)” value ([1]; CO2 and water) was “became miscible”, the “miscibility with water, neutral (unprotonated) amidine form” value ([1]; no CO2) was “immiscible with water” and the “time of CO2 bubbling until top layer disappeared” value ([2]; 1.0 mL water + 0.5 mL BA) was “roughly 30 minutes”. The “heating time to formation of second (hydrophobic) layer” value ([2]; 80 °C oil bath, stirred) was 20 min.
